Species: Rattus norvegicus
Assay: DrugMatrix - Regimen: Daily Repeat
Type: toxicity, organism-based, Sprague-Dawley
Set-up: regimen Daily Repeat, gender Male, age 6-8 weeks
Details: in vivo, iv, vehicle 100 % SALINE; for ABSOLUTE BASOPHIL / ABSOLUTE EOSINOPHIL / ABSOLUTE LYMPHOCYTE / ABSOLUTE MONOCYTE / ABSOLUTE SEGMENTED NEUTROPHIL / BASOPHIL / EOSINOPHIL / ERYTHROCYTE COUNT / HEMATOCRIT / HEMOGLOBIN / LEUKOCYTE COUNT / LYMPHOCYTE / MEAN CORPUSCULAR HEMOGLOBIN / MEAN CORPUSCULAR HEMOGLOBIN CONCENTRATION / MEAN CORPUSCULAR VOLUME / MONOCYTE / NEUTROPHIL / NUCLEATED RED BLOOD CELLS / PLATELET COUNT: tissue Blood; for ALANINE AMINOTRANSFERASE / ALBUMIN / ALKALINE PHOSPHATASE / ASPARTATE AMINOTRANSFERASE / BLOOD UREA NITROGEN / CARBON DIOXIDE / CHLORIDE / CHOLESTEROL / CREATINE PHOSPHOKINASE / CREATININE / GLUCOSE / LACTATE DEHYDROGENASE / LIPASE / PHOSPHORUS / POTASSIUM / SODIUM / TOTAL BILIRUBIN / TOTAL PROTEIN / URIC ACID: tissue Plasma
[1] = 0 mg/kg, 72 h, dose level Control, time 3 day
[2] = 0 mg/kg, 120 h, dose level Control, time 5 day
[3] = 23 mg/kg, 72 h, dose level High, time 3 day

COC(=O)C[C@](O)(CCC(C)(C)O)C(=O)O[C@@H]1C(OC)=C[C@]23CCCN2CCc2cc4c(cc2[C@H]13)OCO4 [HARRINGTONINE]
ABSOLUTE BASOPHIL [1]: 0 CELLS/uL
ABSOLUTE EOSINOPHIL [1]: 15.33 CELLS/uL
ABSOLUTE LYMPHOCYTE [1]: 9513.5 CELLS/uL
ABSOLUTE MONOCYTE [1]: 94.67 CELLS/uL
ABSOLUTE SEGMENTED NEUTROPHIL [1]: 709.83 CELLS/uL
BASOPHIL [1]: 0%
EOSINOPHIL [1]: 0.17%
ERYTHROCYTE COUNT [1]: 5.63 x10E6/uL
HEMATOCRIT [1]: 34.63%
HEMOGLOBIN [1]: 13.6 G/DL
LEUKOCYTE COUNT [1]: 10.33 x10E3/uL
LYMPHOCYTE [1]: 92%
MEAN CORPUSCULAR HEMOGLOBIN [1]: 24.17 pg
MEAN CORPUSCULAR HEMOGLOBIN CONCENTRATION [1]: 39.28 G/DL
MEAN CORPUSCULAR VOLUME [1]: 61.57 fL
MONOCYTE [1]: 0.83%
NEUTROPHIL [1]: 7%
NUCLEATED RED BLOOD CELLS [1]: 0 /100WBC
PLATELET COUNT [1]: 903.17 x10E3/uL
ALANINE AMINOTRANSFERASE [1]: 49.33 u/L
ALBUMIN [1]: 4.27 G/DL
ALKALINE PHOSPHATASE [1]: 400.83 u/L
ASPARTATE AMINOTRANSFERASE [1]: 77.5 u/L
BLOOD UREA NITROGEN [1]: 16.33 mg/dL
CARBON DIOXIDE [1]: 29.33 mmol/L
CHLORIDE [1]: 99.67 MEQ/L
CHOLESTEROL [1]: 66.67 mg/dL
CREATINE PHOSPHOKINASE [1]: 275.33 u/L
CREATININE [1]: 0.18 mg/dL
GLUCOSE [1]: 163.83 mg/dL
LACTATE DEHYDROGENASE [1]: 125.33 u/L
LIPASE [1]: 10 u/L
PHOSPHORUS [1]: 12.12 mg/dL
POTASSIUM [1]: 6.68 MEQ/L
SODIUM [1]: 144.02 MEQ/L
TOTAL BILIRUBIN [1]: 0.18 mg/dL
TOTAL PROTEIN [1]: 5.87 G/DL
URIC ACID [1]: 1.63 mg/dL
ABSOLUTE BASOPHIL [2]: 0 CELLS/uL
ABSOLUTE EOSINOPHIL [2]: 48.83 CELLS/uL
ABSOLUTE LYMPHOCYTE [2]: 14562 CELLS/uL
ABSOLUTE MONOCYTE [2]: 138.67 CELLS/uL
ABSOLUTE SEGMENTED NEUTROPHIL [2]: 1733.83 CELLS/uL
BASOPHIL [2]: 0%
EOSINOPHIL [2]: 0.33%
ERYTHROCYTE COUNT [2]: 5.89 x10E6/uL
HEMATOCRIT [2]: 36.7%
HEMOGLOBIN [2]: 14.42 G/DL
LEUKOCYTE COUNT [2]: 16.48 x10E3/uL
LYMPHOCYTE [2]: 88.83%
MEAN CORPUSCULAR HEMOGLOBIN [2]: 24.52 pg
MEAN CORPUSCULAR HEMOGLOBIN CONCENTRATION [2]: 39.3 G/DL
MEAN CORPUSCULAR VOLUME [2]: 62.37 fL
MONOCYTE [2]: 0.67%
NEUTROPHIL [2]: 10.17%
NUCLEATED RED BLOOD CELLS [2]: 0 /100WBC
PLATELET COUNT [2]: 1076.5 x10E3/uL
ALANINE AMINOTRANSFERASE [2]: 44.67 u/L
ALBUMIN [2]: 4.23 G/DL
ALKALINE PHOSPHATASE [2]: 357.33 u/L
ASPARTATE AMINOTRANSFERASE [2]: 84.83 u/L
BLOOD UREA NITROGEN [2]: 15.5 mg/dL
CARBON DIOXIDE [2]: 27 mmol/L
CHLORIDE [2]: 99.5 MEQ/L
CHOLESTEROL [2]: 63.67 mg/dL
CREATINE PHOSPHOKINASE [2]: 331.33 u/L
CREATININE [2]: 0.18 mg/dL
GLUCOSE [2]: 167.33 mg/dL
LACTATE DEHYDROGENASE [2]: 320.17 u/L
LIPASE [2]: 9.17 u/L
PHOSPHORUS [2]: 12.05 mg/dL
POTASSIUM [2]: 6.54 MEQ/L
SODIUM [2]: 143.02 MEQ/L
TOTAL BILIRUBIN [2]: 0.2 mg/dL
TOTAL PROTEIN [2]: 6.23 G/DL
URIC ACID [2]: 2.07 mg/dL
ABSOLUTE BASOPHIL [3]: 0 CELLS/uL
ABSOLUTE EOSINOPHIL [3]: 0 CELLS/uL
ABSOLUTE LYMPHOCYTE [3]: 9185.67 CELLS/uL
ABSOLUTE MONOCYTE [3]: 0 CELLS/uL
ABSOLUTE SEGMENTED NEUTROPHIL [3]: 547.67 CELLS/uL
BASOPHIL [3]: 0%
EOSINOPHIL [3]: 0%
ERYTHROCYTE COUNT [3]: 5.37 x10E6/uL
HEMATOCRIT [3]: 32.9%
HEMOGLOBIN [3]: 12.87 G/DL
LEUKOCYTE COUNT [3]: 9.73 x10E3/uL
LYMPHOCYTE [3]: 94.33%
MEAN CORPUSCULAR HEMOGLOBIN [3]: 23.97 pg
MEAN CORPUSCULAR HEMOGLOBIN CONCENTRATION [3]: 39.1 G/DL
MEAN CORPUSCULAR VOLUME [3]: 61.2 fL
MONOCYTE [3]: 0%
NEUTROPHIL [3]: 5.67%
NUCLEATED RED BLOOD CELLS [3]: 0 /100WBC
PLATELET COUNT [3]: 883 x10E3/uL
ALANINE AMINOTRANSFERASE [3]: 44.67 u/L
ALBUMIN [3]: 3.57 G/DL
ALKALINE PHOSPHATASE [3]: 237.67 u/L
ASPARTATE AMINOTRANSFERASE [3]: 76 u/L
BLOOD UREA NITROGEN [3]: 14.67 mg/dL
CARBON DIOXIDE [3]: 24.67 mmol/L
CHLORIDE [3]: 101 MEQ/L
CHOLESTEROL [3]: 58.33 mg/dL
CREATINE PHOSPHOKINASE [3]: 746.33 u/L
CREATININE [3]: 0.17 mg/dL
GLUCOSE [3]: 168.33 mg/dL
LACTATE DEHYDROGENASE [3]: 240.33 u/L
LIPASE [3]: 8 u/L
PHOSPHORUS [3]: 11.7 mg/dL
POTASSIUM [3]: 5.94 MEQ/L
SODIUM [3]: 141.53 MEQ/L
TOTAL BILIRUBIN [3]: 0.2 mg/dL
TOTAL PROTEIN [3]: 5.2 G/DL
URIC ACID [3]: 1.93 mg/dL

From ChEMBL document CHEMBL3885881, “DrugMatrix”
